Results taken from patent US4692443A, “3-bicyclicpyridinium-methyl cephalosporins” (Eli Lilly and Company, priority 1984, dated 1987).
In brackets after ≈: the same amount, converted by molar mass. Where two headings read alike, the source gives them in different places.

How the values were obtained:
[1] = tested on: Strep. D X66; assay: standard in vitro agar dilution assay (MIC); format: cell-based; settings: Strep. D strain X66
[2] = tested on: Strep. D 9960; assay: standard in vitro agar dilution assay (MIC); format: cell-based; settings: Strep. D strain 9960
[3] = tested on: Serratia X99; assay: standard in vitro agar dilution assay (MIC); format: cell-based
[4] = tested on: H. influ. C.L.; assay: standard in vitro agar dilution assay (MIC); format: cell-based; settings: read-out: Agar Dilution MIC
[5] = tested on: Staph. epi 222; assay: standard in vitro agar dilution assay (MIC); format: cell-based; settings: Staph. epi strain 222
[6] = tested on: Staph. aureus X1.1; assay: standard in vitro agar dilution assay (MIC); format: cell-based; settings: Staphylococcus aureus
[7] = tested on: Klebsiella KAE; assay: standard in vitro agar dilution assay (MIC); format: cell-based; settings: Klebsiella strain KAE; read-out: Agar Dilution MIC
[8] = tested on: Salmonella X514; assay: standard in vitro agar dilution assay (MIC); format: cell-based; settings: Salmonella strain X514; read-out: Agar Dilution MIC
[9] = tested on: Pseudomonas X239; assay: standard in vitro agar dilution assay (MIC); format: cell-based; settings: Pseudomonas strain X239
[10] = tested on: Strep. PN PARK; assay: standard in vitro agar dilution assay (MIC); format: cell-based; settings: Strep. PN strain PARK
[11] = tested on: Staph. aureus X400; assay: standard in vitro agar dilution assay (MIC); format: cell-based; settings: Staphylococcus aureus; Staph. aureus strain X400
[12] = tested on: Pseudomonas X528; assay: standard in vitro agar dilution assay (MIC); format: cell-based; settings: Pseudomonas strain X528
From the text: The antibacterial activity of several representative compounds of the invention has been evaluated in standard in vitro agar dilution assays. The following Table presents typical minimum inhibitory concentrations (MIC's) in μg /ml for exemplary compounds when evaluated against typical Gram + and Gram - microorganism.

[13] = tested on: Staph. aureus V41; assay: standard in vitro agar dilution assay (MIC); format: cell-based; settings: Staphylococcus aureus; Staph. aureus strain V41; read-out: Agar Dilution MIC
[14] = tested on: Klebsiella X26; assay: standard in vitro agar dilution assay (MIC); format: cell-based; settings: Klebsiella strain X26; read-out: Agar Dilution MIC
[15] = tested on: Strep. A C203; assay: standard in vitro agar dilution assay (MIC); format: cell-based; settings: Strep. A strain C203
[16] = tested on: Staph. aureus S13E; assay: microbe, parasite or virus in culture; format: cell-based; settings: Staphylococcus aureus, read-out: Agar Dilution MIC
[17] = tested on: Enterobacter cloacae EB5; assay: standard in vitro agar dilution assay (MIC); format: cell-based
[18] = tested on: Staph. epi EPI1; assay: standard in vitro agar dilution assay (MIC); format: cell-based; settings: Staph. epi strain EPI1
[19] = Titration (pKa); format: physicochemical; settings: 66% dimethylformamide in water v/v
From the text: Titration (66% dimethylformamide in water v/v) pKa at 4.0, 7.4, 10.7.

[20] = tested on: Klebsiella X68; assay: standard in vitro agar dilution assay (MIC); format: cell-based
[21] = tested on: H. influ. 76; assay: standard in vitro agar dilution assay (MIC); format: cell-based; settings: read-out: Agar Dilution MIC
[22] = tested on: E. coli N10; assay: standard in vitro agar dilution assay (MIC); format: cell-based; settings: Escherichia coli, N10, read-out: Agar Dilution MIC
[23] = tested on: Enterobacter aerogenes C32; assay: standard in vitro agar dilution assay (MIC); format: cell-based; settings: Klebsiella aerogenes, C32, read-out: Agar Dilution MIC
[24] = Serratia, X99, read-out: Agar Dilution MIC
[25] = Enterobacter cloacae, EB5, read-out: Agar Dilution MIC
[26] = Staph. aureus strain X1.1, read-out: Agar Dilution MIC

| SMILES | MIC [1] | MIC [2] | MIC [3, 24] | MIC [4] | MIC [5] | MIC [7] | MIC [8] | MIC [9] | MIC [10] | MIC [11] | MIC [12] | MIC [13] | MIC [15] | MIC [16] | MIC [17, 25] | MIC [18] | MIC [6, 26] | other results |
| --- | --- | --- | --- | --- | --- | --- | --- | --- | --- | --- | --- | --- | --- | --- | --- | --- | --- | --- |
| CO/N=C(\C(=O)NC1C(=O)N2C(C(=O)[O-])=C(C[n+]3ccc4oc(C)nc4c3)CSC12)c1csc(N)n1 (stereo not drawn) [Example 11, syn-7-[2-(2-aminothiazol-4-yl)-2-methoxyiminoacetamido]-3-(2-methyloxazolo[4,5-c]pyridinium-5-ylmethyl)-3-cephem-4-carboxylate] | > 128 µg/mL | 8 µg/mL (≈ 15.1 µM) | 0.125 µg/mL (≈ 0.236 µM) | 0.125 µg/mL (≈ 0.236 µM) | 1 µg/mL (≈ 1.89 µM) | 4 µg/mL (≈ 7.55 µM) | 0.03 µg/mL (≈ 0.0567 µM) | 2 µg/mL (≈ 3.78 µM) | 0.015 µg/mL (≈ 0.0283 µM) | 32 µg/mL (≈ 60.4 µM) | 4 µg/mL (≈ 7.55 µM) | 8 µg/mL (≈ 15.1 µM) | 0.015 µg/mL (≈ 0.0283 µM) | 8 µg/mL (≈ 15.1 µM) | 0.125 µg/mL (≈ 0.236 µM) | 4 µg/mL (≈ 7.55 µM) | – | MIC ([6]; X1.1, read-out: Agar Dilution MIC): 0.5 µg/mL (≈ 0.944 µM); MIC [14]: 0.015 µg/mL (≈ 0.0283 µM) |
| CO/N=C(\C(=O)N[C@@H]1C(=O)N2C(C(=O)[O-])=C(C[n+]3cccc4nc(N)sc43)CS[C@H]12)c1csc(N)n1 [Example 15, syn-7-[2-(2-aminothiazol-4-yl)-2-methoxyiminoacetamido]-3-(2-aminothiazolo[5,4-b]pyridinium-4-ylmethyl)-3-cephem-4-carboxylate] | – | 8 µg/mL (≈ 14.6 µM) | – | – | 16 µg/mL (≈ 29.3 µM) | – | – | 2 µg/mL (≈ 3.66 µM) | – | – | 1 µg/mL (≈ 1.83 µM) | 2 µg/mL (≈ 3.66 µM) | 0.015 µg/mL (≈ 0.0274 µM) | 4 µg/mL (≈ 7.32 µM) | – | 2 µg/mL (≈ 3.66 µM) | – | pKa (second) [19]: 7.4; pKa (third) [19]: 10.7; pKa ([19]; read-out: pKa (first)): 4; MIC ([20]; Klebsiella strain X68, read-out: Agar Dilution MIC): 4 µg/mL (≈ 7.32 µM) |
| CO/N=C(\C(=O)NC1C(=O)N2C(C(=O)[O-])=C(C[n+]3ccc4nc(C)sc4c3)CSC12)c1csc(N)n1 (stereo not drawn) [Example 16, syn-7-[2-(2-aminothiazol-4-yl)-2-methoxyiminoacetamido]-3-(2-methylthiazolo[5,4-c]pyridinium-5-ylmethyl)-3-cephem-4-carboxylate] | > 128 µg/mL | 8 µg/mL (≈ 14.7 µM) | 0.125 µg/mL (≈ 0.229 µM) | – | 1 µg/mL (≈ 1.83 µM) | 1 µg/mL (≈ 1.83 µM) | 0.03 µg/mL (≈ 0.055 µM) | 4 µg/mL (≈ 7.33 µM) | – | 8 µg/mL (≈ 14.7 µM) | 8 µg/mL (≈ 14.7 µM) | 4 µg/mL (≈ 7.33 µM) | 0.015 µg/mL (≈ 0.0275 µM) | 4 µg/mL (≈ 7.33 µM) | 0.125 µg/mL (≈ 0.229 µM) | 2 µg/mL (≈ 3.67 µM) | 1 µg/mL (≈ 1.83 µM) | MIC ([21]; H. influ. strain 76): 0.015 µg/mL (≈ 0.0275 µM) |
| CO/N=C(\C(=O)NC1C(=O)N2C(C(=O)[O-])=C(C[n+]3ccc4nc(C(C)(C)C)sc4c3)CSC12)c1csc(N)n1 (stereo not drawn) [Example 17, syn-7-[2-(2-aminothiazol-4-yl)-2-methoxyiminoacetamido]-3-(2-tert.-butylthiazolo[5,4-c]pyridinium-5-ylmethyl)-3-cephem-4-carboxylate] | > 128 µg/mL | 4 µg/mL (≈ 6.81 µM) | – | 0.25 µg/mL (≈ 0.425 µM) | 1 µg/mL (≈ 1.7 µM) | 4 µg/mL (≈ 6.81 µM) | 0.5 µg/mL (≈ 0.851 µM) | – | 0.015 µg/mL (≈ 0.0255 µM) | 32 µg/mL (≈ 54.4 µM) | – | 4 µg/mL (≈ 6.81 µM) | 0.015 µg/mL (≈ 0.0255 µM) | 8 µg/mL (≈ 13.6 µM) | – | 4 µg/mL (≈ 6.81 µM) | 1 µg/mL (≈ 1.7 µM) | MIC ([3]; Serratia strain X99, read-out: Agar Dilution MIC): 1 µg/mL (≈ 1.7 µM); MIC ([20]; Klebsiella, X68, read-out: Agar Dilution MIC): 0.5 µg/mL (≈ 0.851 µM); MIC [22]: 0.5 µg/mL (≈ 0.851 µM); MIC [21]: 0.125 µg/mL (≈ 0.213 µM); MIC ([17]; Enterobacter cloacae strain EB5, read-out: Agar Dilution MIC): 1 µg/mL (≈ 1.7 µM); MIC [23]: 0.5 µg/mL (≈ 0.851 µM) |
